For experiment [1], the system named is yeast cells (strain RPY10). The experiment is described as follows: Yeast system transfection with pFL1 plasmid (cfu relative to negative control). The format is cell-based, Saccharomyces cerevisiae. As to conditions: FIG. 1a, concentration series, ordinate values standardized to chloroquine.
Method: A first cell system is a yeast system. The transfection protocol corresponded to that of the document B. Neukamm et al., Biochimica et Biophysica Acta 1572:67-76 (2002). For the measurements, a lab robot (Zinsser, Frankfurt, Germany) was used, and a pipetting protocol was prepared.
Yeast precultures were drawn from cultures of a −70° C. glycerol stock of the strain RPY10 (R. C. Piper et al., Eur J Cell Biol 65:305-318 (1995)) for 72 hours. In the main culture, the cells were drawn over night in YPD medium up to a cell density of 5 to 8·10^7 cells/ml. 12·10^9 cells were harvested and washed twice with the same volume of distilled water. The cells were made competent for the transfection by soaking in distilled water for 30 minutes at 4° C. The competent cells were harvested and resuspended in 10 ml 34% sucrose, adjusted with HCl to pH 4. The suspension was immediately transferred into a sterilized 40 ml glass tube (Zinsser Analytik, Frankfurt, Germany), which were then sealed by an aluminum foil. The tubes were then placed on a shaker on the platform of the lab robot and treated for 40 seconds at 300 rpm. The suspension was automatically distributed into the wells of a 96-well microtiter plate (80 μl each by using stainless steel tips).
The subsequent pipetting protocol was as follows. First, solutions of a substance according to the invention or of a reference substance in different concentrations were added. Exactly 5 minutes later, 10 μl of a solution or suspension of the pFL1 plasmid (0.15 μg/μl) of example 1 were automatically added to the mixture of cells and substance. Some wells were used for a negative control, and only the used solvents and the plasmid were added to the cell suspension, not however the substance. After termination of the pipetting protocol, the plate was covered and placed on the Desyre mixer (Zinsser Analytik). After vortexing for 1 minute at 1,300 rpm, an incubation was performed at 28° C. for 18-20 hours. After the incubation, 110 μl distilled water each were slowly added. Then the cells of each well were transferred to 6-well plates (PS Macroplate, Greiner), filled up with 4 ml WMIXura (Neukamm et al., see above). The wells of the microtiter plate were each washed with 50 μl distilled water, and the washing solution was pipetted on the solid surface of the WMIXura. The macroplates were left dry and incubated for 4 days at 28° C.
Colony forming units (cfu) were then counted in every well. The obtained cfu values were related to the cfu values of the negative control. This ratio is a measure for the transfection effectivity.
For each used substance, the optimum concentration was determined by means of concentration series. For this purpose, concentration series of the respective substances were used. […]
For a further experiment, the system named is HepG2 cells. The experiment is described as follows: Mammal cells system transfection with luciferase plasmid (luciferase activity). The format is cell-based. To be noted: FIG. 1b, concentration series, ordinate values standardized to chloroquine.

Method for HepG2 cells: HepG2 cells were drawn in Dulbecco's Modified Eagle Medium (DMEM, Gibco BRL, Eggenstein, Germany), supplemented with 10% FBS (fetal bovine serum, Gibco) and 1 μg/ml insulin. On day 1, the cells were removed by means of trypsination, washed and distributed on the wells of a 24-well tissue culture dish, namely 1.5·10^7 cells per well.
24 hours later the transfection tests were performed with the luciferase plasmid from example 1 with different substances at approx. 70 to 80% confluence. The supernatant was removed, and then a mixture (250 μl) containing medium, 12.5 μl dextran (10 mg/ml), 0.5 μl of the plasmid and the respective substance was added to every well. After 2.5 hours incubation at 37° C., the supernatant was removed, and 500 μl complete medium were added to each well. On day 5, the luciferase activity was measured by using the Dual Luciferase® Reporter Assay Kit (Promega, Mannheim, Germany). For this purpose, 48 hours after the transfection, the cell culture supernatants were removed, and the cells were solubilized after addition of 100 μl 1× lysis buffer per well (Promega) for 20 minutes at 20° C. on a slow shaker. 20 μl of the cell-free supernatant were transferred into a 96-well plate (Corning and Costar, Wiesbaden, Germany) and reacted with 100 μl luciferase assay buffer. The luciferase activity was measured with a luminometer (EG&G Berthold MicrolumatPlus).
For each used substance, the optimum concentration was determined by means of concentration series. For this purpose, concentration series of the respective substances were used. For comparing, corresponding measurements were performed with chloroquine. […] The ordinate values are standardized to chloroquine.

As for `Clc1ccc2c(c1)C(N1CCNCC1)=Nc1ccccc1O2` [amoxapine], the “optimum concentration for promoting transfection, compared to chloroquine” value (shortened to “optimum concentration … compared to chloroquine”) (in experiment [1]; with HepG2 cells) was “smaller” in each case.
As to `CNCCCC12CCC(c3ccccc31)c1ccccc12` [maprotyline], the “optimum concentration … compared to chloroquine” value (in experiment [1]; with HepG2 cells) was “smaller” each time.
For the molecule `CN(C)CCCN1c2ccccc2Sc2ccc(Cl)cc21` [chlorpromazine], the “optimum concentration … compared to chloroquine” value (in experiment [1]; with HepG2 cells) was “smaller” each time.
For `CN(C)CCC=C1c2ccccc2COc2ccccc21` [doxepine], the “optimum concentration … compared to chloroquine” value (in experiment [1]; with HepG2 cells) was “similarly high” in each case.

These data come from US20080194540A1, “Use of a Tricyclic Antidepressant Drug For Promoting Endocytosis” (RINA NETZWERK RNA-TECHNOLOGIEN GMBH, priority 2003, published 2008).
